Measurements: ChEMBL document CHEMBL1155609, “New cytotoxic sterol glycosides from the octocoral Carijoa (Telesto) riisei” (2000)
Values after ≈ are worked out from the molar mass of the structure shown.

Test system: HCT-116
Test: Cytotoxicity against human HCT116 cells
Format: functional
Conditions: read-out: ED50 (the source's name)

Row | Structure (SMILES) | EC50
1 | CC(=O)OCC(C)CCC[C@@H](C)[C@H]1CC[C@H]2[C@@H]3C[C@@H](O)[C@@]4(O)C[C@@H](O[C@@H]5OC[C@@H](O)[C@@H](OC(C)=O)[C@@H]5O)CC[C@]4(C)[C@H]3CC[C@]12C (some centres not stated) [RIISEIN A] | 2 µg/mL (≈ 3.06 µM)
2 | CC(=O)OCC(C)CCC[C@@H](C)[C@H]1CC[C@H]2[C@@H]3C[C@@H](O)[C@@]4(O)C[C@@H](O[C@@H]5OC[C@@H](OC(C)=O)[C@@H](O)[C@@H]5O)CC[C@]4(C)[C@H]3CC[C@]12C (some centres not stated) [RIISEIN B] | 2 µg/mL (≈ 3.06 µM)
